These results are taken from publication PMC10745768, “Stereoselective Synthesis and Antiproliferative Activity of Steviol-Based Diterpene 1,3-Aminoalcohol Regioisomers” (Molecules, 2023).

Series [1] relates to HeLa cells. Also noted: method as in earlier work. As to conditions: ref 24 (Bai D, Int J Mol Sci 2023, 10.3390/ijms24021121), cited from earlier work.
Series [2] deals with SiHa cells. Also noted: method as in earlier work. As to conditions: ref 24 (Bai D, Int J Mol Sci 2023, 10.3390/ijms24021121), cited from earlier work.
The test system of series [3] is MCF-7 cells. Also noted: method as in earlier work. As to conditions: ref 24 (Bai D, Int J Mol Sci 2023, 10.3390/ijms24021121), cited from earlier work.
Series [4] relates to MDA-MB-231 cells. Set-up: method as in earlier work. To be noted: ref 24 (Bai D, Int J Mol Sci 2023, 10.3390/ijms24021121), cited from earlier work.
The subject of series [5] is A2780 cells. Set-up: method as in earlier work. As to conditions: ref 24 (Bai D, Int J Mol Sci 2023, 10.3390/ijms24021121), cited from earlier work.
For series [6], the system named is NIH/3T3 fibroblast cells. Set-up: method as in earlier work. As to conditions: ref 24 (Bai D, Int J Mol Sci 2023, 10.3390/ijms24021121), cited from earlier work.
Series [7] concerns HeLa cells. In words: MTT antiproliferative assay, HeLa. It counts as cell-based. To be noted: Homo sapiens, 72 h; for inhibition at 10 µM / inhibition at 30 µM: read-out: Growth inhibition (%) ± SEM; for IC50: read-out: calculated IC50. The gist of the method: (§1)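 Cells seeded at 5000/well in EMEM with 10% FBS, treated next day at 10 µM and 30 µM for 72 h at 37 °C, 5% CO2. MTT added 4 h, formazan dissolved in DMSO, absorbance at 545 nm; IC50 by sigmoid fitting, two experiments, five wells each.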

The subject of series [8] is SiHa cells. In words: MTT antiproliferative assay, SiHa. It counts as cell-based. As to conditions: Homo sapiens, 72 h; for inhibition at 10 µM / inhibition at 30 µM: read-out: Growth inhibition (%) ± SEM; for IC50: read-out: calculated IC50. The method in brief:
as §1

In series [9] the test system is MCF-7 cells. Kind of series: MTT antiproliferative assay, MCF-7. It counts as cell-based. To be noted: Homo sapiens, MCF7; for inhibition at 10 µM: MCF-7, 10 μM; for inhibition at 10 µM / inhibition at 30 µM: 72 h, read-out: Growth inhibition (%) ± SEM; for inhibition at 30 µM: MCF-7, 30 μM; for IC50: MCF-7, 72 h, read-out: calculated IC50. The method in brief: as §1

The test system of series [10] is MDA-MB-231 cells. In words: MTT antiproliferative assay, MDA-MB-231. Type of series: cell-based. To be noted: Homo sapiens; for inhibition at 10 µM: MDA-MB-231, 10 μM; for inhibition at 10 µM / inhibition at 30 µM: 72 h, read-out: Growth inhibition (%) ± SEM; for inhibition at 30 µM: MDA-MB-231, 30 μM; for IC50: MDA-MB-231, 72 h, read-out: calculated IC50. The gist of the method: as §1

Series [11] concerns A2780 cells. Kind of series: MTT antiproliferative assay, A2780. Type of series: cell-based. To be noted: Homo sapiens; for inhibition at 10 µM: A2780, 10 μM; for inhibition at 10 µM / inhibition at 30 µM: 72 h, read-out: Growth inhibition (%) ± SEM; for inhibition at 30 µM: A2780, 30 μM; for IC50: A2780, 72 h, read-out: calculated IC50. The gist of the method:
as §1

Series [12] relates to NIH/3T3 fibroblast cells. In words: MTT assay on non-malignant fibroblasts (selectivity). It counts as cell-based, murine. To be noted: Mus musculus, NIH3T3; for inhibition at 10 µM: NIH/3T3, 10 μM; for inhibition at 10 µM / inhibition at 30 µM: 72 h, read-out: Growth inhibition (%) ± SEM; for inhibition at 30 µM: NIH/3T3, 30 μM; for IC50: NIH/3T3, 72 h, read-out: calculated IC50. The gist of the method: as §1

Series [13] has as its system human cancer cell lines (HeLa, SiHa, MCF-7, MDA-MB-231, A2780). Kind of series: MTT antiproliferative assay, panel of malignant cells. It counts as cell-based. To be noted: 30 μM. The procedure:
(§2) The in vitro anticancer effects of the presented compounds were assessed using the standard MTT [3-(4,5-dimethylthiazol2-yl)-2,5-diphenyltetrazolium bromide] assay on the following human cancer cell lines: cervical (HeLa and SiHa), breast (MCF-7 and MDA-MB-231) and ovarian cancer (A2780). The selectivity of the tested compounds was determined on murine embryonal fibroblast cells (NIH/3T3). The utilised cell lines were purchased from the European Collection of Cell Cultures (Salisbury, UK). The cells were cultivated in Eagle’s minimal essential medium supplemented with 10% fetal bovine serum, 1% non-essential amino acids and 1% antibiotic-antimycotic complex (penicillin, streptomycin, amphotericin B) at 37 °C in a humidified atmosphere containing 5% CO2. All media and supplements were purchased from Lonza Group Ltd. (Basel, Switzerland). The cancer cells were seeded into 96-well plates (5000 cells/well) and incubated overnight, and the test compounds were applied in two different concentrations (10 µM and 30 µM) and incubated for another 72 h under cell-culturing conditions. […] After 72 h, 20 µL of the 5 mg/mL MTT solution was added to each well, and the plates were incubated for 4 h. The medium was removed, and the formazan crystals produced by the mitochondrial activity were dissolved in dimethyl sulfoxide (DMSO) via shaking at 37 °C for 30 min. The absorbances were measured at 545 nm using a microplate reader (SPECTROStar Nano, BMG Labtech, Offenburg, Germany). The reference agent was cisplatin, which is a widely used cytotoxic agent. The IC50 values were calculated using sigmoid curve fitting. Two independent experiments were performed with five parallel wells for each condition. Calculations were performed using the GraphPad Prism 9 software (GraphPad Software Inc., San Diego, CA, USA).

Series [14] deals with cancer cells and fibroblasts (HeLa, SiHa, MCF-7, MDA-MB-231, A2780, NIH/3T3). In words: MTT antiproliferative assay, cancer cells and fibroblasts. To be noted: Fibroblast; range over all six cell lines; read-out: IC50 values against both the cancer cells and fibroblasts. Type of series: cell-based. The method, then: as §2, with “The medium was removed, and the formazan crystals produced by the mitochondrial activity were dissolved in dimethyl sulfoxide (DMSO) via shaking at 37 °C for 30 min.” left out, “The reference agent was cisplatin, which is a widely used cytotoxic agent.” left out, “Two independent experiments were performed with five parallel wells for each condition. Calculations were performed using the GraphPad Prism 9 software (GraphPad Software Inc., San Diego, CA, USA).” left out
(In general: Tetrazolium dyes change colour on reduction, which living cells bring about.)

Where two headings read alike, the source gives them in different places.

With `N.N.[Cl][Pt][Cl]` [Cisplatin, cisplatin], the “Growth inhibition (%) ± SEM” value with HeLa cells [1] (10 μM) is recorded as 42.61 ± 2.33%; with HeLa cells [1] (30 μM), 99.93 ± 0.26%; in the series with SiHa cells [2] (10 μM), 60.98 ± 0.92%; in the series with SiHa cells [2] (30 μM), 88.95 ± 0.53%; with MCF-7 cells [3] (MCF-7, 10 μM), 53.03 ± 2.29%; with MCF-7 cells [3] (MCF-7, 30 μM) it was 86.90 ± 1.22%. The “Growth inhibition (%) ± SEM” value in the series with MDA-MB-231 cells [4] (MDA-MB-231, 10 μM) was 67.51 ± 1.01%; with MDA-MB-231 cells [4] (MDA-MB-231, 30 μM), 87.75 ± 1.10%; in the series on A2780 cells [5] (A2780, 10 μM), 83.57 ± 1.21%; with A2780 cells [5] (A2780, 30 μM) it was 95.02 ± 0.28%; with NIH/3T3 fibroblast cells [6] (NIH/3T3, 10 μM) it was 73.88 ± 1.63%; in the series with NIH/3T3 fibroblast cells [6] (NIH/3T3, 30 μM), 97.10 ± 0.15%.
As usually defined, the inhibition is the share of the control response that was lost under treatment. By melting point is commonly meant the temperature of the solid-liquid transition. `COC(=O)[C@]1(C)CCC[C@@]2(C)[C@@H]3CC[C@@]4(CN=[N+]=[N-])C[C@]3(CC[C@@H]21)C[C@H]4O` [Compound 20, (4R,4aS,6aR,8R,9S,11aR,11bS)-Methyl 9-(azidomethyl)-8-hydroxy-4,11b-dimethyltetradecahydro-6a,9-methanocyclohepta[a]naphthalene-4-carboxylate] showed a melting point of 72 to 74 °C. Further, in the series with HeLa cells [7], the inhibition at 10 µM is under 20% and the inhibition at 30 µM is under 20%. In the series on SiHa cells [8], the inhibition at 10 µM is under 20% and the inhibition at 30 µM is under 20%. In addition, in the series on MCF-7 cells [9], the inhibition at 10 µM was under 20% and the inhibition at 30 µM was 30.7 ± 0.93%. Also, in the series with MDA-MB-231 cells [10], the inhibition at 10 µM was under 20% and the inhibition at 30 µM was under 20%. In addition, in the series on A2780 cells [11], the inhibition at 10 µM is under 20% and the inhibition at 30 µM was determined as 27 ± 2.25%. Further, in the series with NIH/3T3 fibroblast cells [12], the inhibition at 10 µM was under 20% and the inhibition at 30 µM is under 20%. In addition, the “antiproliferative action at higher concentration (in words)” value in [13] was “no substantial action”.
As usually defined, the IC50 is the concentration that gives 50% inhibition. `COC(=O)[C@]1(C)CCC[C@@]2(C)[C@@H]3CC[C@@]4(CNCc5ccc(F)cc5)C[C@]3(CC[C@@H]21)C[C@H]4O` [Compound 23, (4R,4aS,6aR,8R,9S,11aR,11bS)-Methyl 9-(((4-fluorobenzyl)amino)methyl)-8-hydroxy-4,11b-dimethyltetradecahydro-6a,9-methanocyclohepta[a]naphthalene-4-carboxylate]: the inhibition at 10 µM with HeLa cells [7] is 70.1 ± 1.97%; in the series with SiHa cells [8], 68.1 ± 1.85%; in the series with MCF-7 cells [9], 95.81 ± 0.84%; with MDA-MB-231 cells [10], 92.99 ± 0.39%; with A2780 cells [11] it was 80 ± 1.6%; with NIH/3T3 fibroblast cells [12] it was 81.8 ± 3.07%. Moreover, the inhibition at 30 µM in the series on HeLa cells [7] amounted to 90.41 ± 0.78%; in the series with SiHa cells [8], 80.5 ± 3.16%; in the series on MCF-7 cells [9] it was 95.3 ± 1.05%; with MDA-MB-231 cells [10], 91.4 ± 0.39%; with A2780 cells [11] it was 95.71 ± 0.58%; in the series on NIH/3T3 fibroblast cells [12], 93.62 ± 0.77%. Further, the IC50 in the series on HeLa cells [7] is 5.07 µM; with SiHa cells [8], 4.41 µM; in the series with MCF-7 cells [9], 1.59 µM; with MDA-MB-231 cells [10], 3.28 µM; with A2780 cells [11] it was 4.39 µM; in the series on NIH/3T3 fibroblast cells [12] it was 5.15 µM. Besides, the IC50 in series [14] is 1.59 to 5.15 µM.
`COC(=O)[C@]1(C)CCC[C@@]2(C)[C@@H]3CC[C@@]4(CNCc5ccc(OC)cc5)C[C@]3(CC[C@@H]21)C[C@H]4O` [Compound 32, (4R,4aS,6aR,8R,9S,11aR,11bS)-Methyl 8-hydroxy-9-(((4-methoxybenzyl)amino)methyl)-4,11b-dimethyltetradecahydro-6a,9-methanocyclohepta[a]naphthalene-4-carboxylate]: the inhibition at 10 µM in the series on HeLa cells [7] came out at 97.09 ± 0.79%; in the series with SiHa cells [8], 95.6 ± 2.12%; with MCF-7 cells [9], 99.59 ± 0.13%; in the series on MDA-MB-231 cells [10] it was 97.12 ± 0.6%; in the series with A2780 cells [11] it was 97.94 ± 0.6%; in the series on NIH/3T3 fibroblast cells [12], 96.93 ± 0.92%. Further, the inhibition at 30 µM was determined as 97.18 ± 0.76% in the series with HeLa cells [7]; 96.5 ± 1.09% with SiHa cells [8]; 99.88 ± 0.23% with MCF-7 cells [9]; 96.3 ± 1.02% with MDA-MB-231 cells [10]; 98.01 ± 0.6% with A2780 cells [11]; 96.6 ± 1.05% in the series with NIH/3T3 fibroblast cells [12]. Further, the IC50 with HeLa cells [7] was 3.09 µM; with SiHa cells [8], 5.77 µM; with MCF-7 cells [9], 1.04 µM; in the series on MDA-MB-231 cells [10] it was 2.3 µM; in the series with A2780 cells [11], 3.78 µM; in the series with NIH/3T3 fibroblast cells [12] it was 3.71 µM. Further, in [14], the IC50 fell in the range of 1.04 to 5.77 µM.
